Test results reported in patent US10308608B2, “Histone deacetylase inhibitors” (BIOMARIN PHARMACEUTICAL INC., priority 2015, dated 2019).
Counter-ions that a name gives are not always drawn.

System: Frataxin (FXN) mRNA
Assay: Effect of HDAC inhibitors on frataxin (FXN) mRNA expression, qRT-PCR in compound-treated iPSC derived neuronal cells
Assay type: cell-based
Settings: compound concentration of 0.625 μM, 24 h incubation, dihydrochloride, 0.625 µM
Description: Effect of HDAC Inhibitors on Frataxin (FXN) mRNA Expression
Method: mRNA quantification of compound-treated iPSC derived neuronal cells Neuronal stem cells were cultured in Neurobasal A medium (Life technologies #10888022) supplemented with N2, B27 (Life technologies #17502-048 and #17504-044), L-glutamine (Life technologies #25030081), supplemented with 20 ng/ml EGF (R&D Systems #236-EG) and 20 ng/ml bFGF (BioPioneer # HRP-0011). Neuronal differentiation was initiated by removing growth factors and culturing cells in Neurobasal A with N2 and B27. Cells were allowed to differentiate for 16 days. HDAC inhibitory compound was then added and incubate for 24 h. RNA isolation was performed using the RNeasy Plus mini kit (QIAgen #74134) using a QIAcube instrument per manufacturer's instructions. qRT-PCR was performed using qScript One-Step SYBR Green qRT-PCR Kit (Quanta Biosciences 170-8893BR) with the following conditions: 20 minutes at 50° C., 5 minutes at 95° C., and then 40 cycles of 20 seconds at 95° C., 20 seconds at 55° C., 30 seconds at 72° C. The primer sequences to detect expression of FXN were: 5′-[…]-3′ and 5′-[…]-3′.
The data for the following compounds, for FXN mRNA fold induction at a compound concentration of 0.625 μM are shown in Table 1, where A<1, 1<B<2, 2<C<3, 3<D<5, E>5.

| Structure (SMILES) | FXN mRNA fold induction |
| --- | --- |
| Nc1ccccc1NC(=O)c1ccc(OC2CCCN(CC3CCCCC3)CC2)cc1 (single isomer, unassigned) [Compound 40B, N-(2-aminophenyl)-4-((1-(cyclohexylmethyl)azepan-4-yl)oxy)benzamide dihydrochloride] | C (2<C<3) |

Same assay, conditions: iPSC, 24 h, compound concentration of 0.625 μM, 24 h incubation, read-out: FXN mRNA fold induction

| Structure (SMILES) | fold induction at 0.625 µM |
| --- | --- |
| Nc1ccccc1NC(=O)c1ccc(OC2CCCN(CC3CCCCC3)CC2)cc1 (single isomer, unassigned) [Compound 40A, N-(2-aminophenyl)-4-((1-(cyclohexylmethyl)azepan-4-yl)oxy)benzamide dihydrochloride] | 1 to 2 |
| Nc1ccccc1NC(=O)c1ccc(N[C@@H]2CCCN(CC3CCCCC3)CC2)cc1 (single isomer, unassigned) [Compound 85A] | 2 to 3 |
| Nc1ccccc1NC(=O)c1ccc(N[C@H]2CCCN(CC3CCCCC3)CC2)cc1 (single isomer, unassigned) [Compound 85B] | 2 to 3 |
| Nc1ccccc1NC(=O)c1ccc(OC2CCN(CC3CC3)CC2)cc1 [Compound 1, N-(2-aminophenyl)-4-((1-(cyclopropylmethyl)piperidin-4-yl)oxy)benzamide] | 1 to 2 |
| CC(C)(O)CN1CCC(Oc2ccc(C(=O)Nc3ccccc3N)cc2)CC1 [Compound 2, N-(2-aminophenyl)-4-((1-(2-hydroxy-2-methylpropyl)piperidin-4-yl)oxy)benzamide] | 1 to 2 |
| Nc1ccccc1NC(=O)c1ccc(NC2CCN(CC3CC3)CC2)cc1 [Compound 3, N-(2-aminophenyl)-4-((1-(cyclopropylmethyl)piperidin-4-yl)amino)benzamide] | 1 to 2 |
| CC(C)(O)CN1CCC(Nc2ccc(C(=O)Nc3ccccc3N)cc2)CC1 [Compound 4, N-(2-aminophenyl)-4-((1-(2-hydroxy-2-methylpropyl)piperidin-4-yl)amino)benzamide] | 1 to 2 |
| Nc1ccccc1NC(=O)c1ccc(OC2CCCNCC2)cc1 (stereo not shown) [Compound 33, N-(2-aminophenyl)-4-(azepan-4-yloxy)benzamide hydrochloride] | 2 to 3 |
| CN1CCCC(Oc2ccc(C(=O)Nc3ccccc3N)cc2)CC1 (stereo not shown) [Compound 34, N-(2-aminophenyl)-4-((1-methylazepan-4-yl)oxy)benzamide bis(2,2,2-trifluoroacetate)] | 1 to 2 |
| CC(C)CN1CCCC(Oc2ccc(C(=O)Nc3ccccc3N)cc2)CC1 (stereo not shown) [Compound 35, N-(2-aminophenyl)-4-((1-isobutylazepan-4-yl)oxy)benzamide dihydrochloride] | 2 to 3 |
| CC(C)(O)CN1CCCC(Oc2ccc(C(=O)Nc3ccccc3N)cc2)CC1 (stereo not shown) [Compound 36, N-(2-aminophenyl)-4-((1-(2-hydroxy-2-methylpropyl)azepan-4-yl)oxy)benzamide dihydrochloride] | 1 to 2 |
| CC(C)(C)CN1CCCC(Oc2ccc(C(=O)Nc3ccccc3N)cc2)CC1 (stereo not shown) [Compound 37, N-(2-aminophenyl)-4-((1-neopentylazepan-4-yl)oxy)benzamide] | 2 to 3 |
| Nc1ccccc1NC(=O)c1ccc(OC2CCCN(CC3CC3)CC2)cc1 (stereo not shown) [Compound 38, N-(2-aminophenyl)-4-((1-(cyclopropylmethyl)azepan-4-yl)oxy)benzamide dihydrochloride] | 2 to 3 |
| Nc1ccccc1NC(=O)c1ccc(O[C@H]2CCCN(CC3CC3)CC2)cc1 [Compound 38A, (S)-N-(2-aminophenyl)-4-((1-(cyclopropylmethyl)azepan-4-yl)oxy)benzamide] | < 1 |
| Nc1ccccc1NC(=O)c1ccc(O[C@@H]2CCCN(CC3CC3)CC2)cc1 [Compound 38B, (R)-N-(2-aminophenyl)-4-((1-(cyclopropylmethyl)azepan-4-yl)oxy)benzamide] | 1 to 2 |
| CC1(CN2CCCC(Oc3ccc(C(=O)Nc4ccccc4N)cc3)CC2)CC1 (stereo not shown) [Compound 39, N-(2-aminophenyl)-4-((1-((1-methylcyclopropyl)methyl)azepan-4-yl)oxy)benzamide] | 3 to 5 |
| Nc1ccccc1NC(=O)c1ccc(OC2CCCN(CC3CCCCC3)CC2)cc1 (stereo not shown) [Compound 40, N-(2-aminophenyl)-4-((1-(cyclohexylmethyl)azepan-4-yl)oxy)benzamide dihydrochloride] | 3 to 5 |
| Nc1ccccc1NC(=O)c1ccc(OC2CNC2)cc1 [Compound 41, N-(2-aminophenyl)-4-(azetidin-3-yloxy)benzamide hydrochloride] | 1 to 2 |
| CN1CC(Oc2ccc(C(=O)Nc3ccccc3N)cc2)C1 [Compound 42, N-(2-aminophenyl)-4-((1-methylazetidin-3-yl)oxy)benzamide] | 1 to 2 |
| CC(C)CN1CC(Oc2ccc(C(=O)Nc3ccccc3N)cc2)C1 [Compound 43, N-(2-aminophenyl)-4-((1-isobutylazetidin-3-yl)oxy)benzamide dihydrochloride] | 1 to 2 |
| CC(C)(O)CN1CC(Oc2ccc(C(=O)Nc3ccccc3N)cc2)C1 [Compound 44, N-(2-aminophenyl)-4-((1-(2-hydroxy-2-methylpropyl)azetidin-3-yl)oxy)benzamide dihydrochloride] | 1 to 2 |
| CC(C)(C)CN1CC(Oc2ccc(C(=O)Nc3ccccc3N)cc2)C1 [Compound 45, dihydrochloride] | 1 to 2 |
| Nc1ccccc1NC(=O)c1ccc(OC2CN(CC3CC3)C2)cc1 [Compound 46, N-(2-aminophenyl)-4-((1-(cyclopropylmethyl)azetidin-3-yl)oxy)benzamide dihydrochloride] | 1 to 2 |
| CC1(CN2CC(Oc3ccc(C(=O)Nc4ccccc4N)cc3)C2)CC1 [Compound 47, N-(2-aminophenyl)-4-((1-((1-methylcyclopropyl)methyl)azetidin-3-yl)oxy)benzamide dihydrochloride] | 1 to 2 |
| Nc1ccccc1NC(=O)c1ccc(OC2CN(CC3CCCCC3)C2)cc1 [Compound 48, N-(2-aminophenyl)-4-((1-(cyclohexylmethyl)azetidin-3-yl)oxy)benzamide dihydrochloride] | 2 to 3 |
| Nc1ccccc1NC(=O)c1ccc(O[C@H]2CCNC2)cc1 [Compound 49, (S)-N-(2-aminophenyl)-4-(pyrrolidin-3-yloxy)benzamide hydrochloride] | 2 to 3 |
| CN1CC[C@H](Oc2ccc(C(=O)Nc3ccccc3N)cc2)C1 [Compound 50, (S)-N-(2-aminophenyl)-4-((1-methylpyrrolidin-3-yl)oxy)benzamide dihydrochloride] | 2 to 3 |
| CC(C)CN1CC[C@H](Oc2ccc(C(=O)Nc3ccccc3N)cc2)C1 [Compound 51, (S)-N-(2-aminophenyl)-4-((1-isobutylpyrrolidin-3-yl)oxy)benzamide dihydrochloride] | 1 to 2 |
| CC(C)(O)CN1CC[C@H](Oc2ccc(C(=O)Nc3ccccc3N)cc2)C1 [Compound 52, (S)-N-(2-aminophenyl)-4-((1-(2-hydroxy-2-methylpropyl)pyrrolidin-3-yl)oxy)benzamide dihydrochloride] | 1 to 2 |
| CC(C)(C)CN1CC[C@H](Oc2ccc(C(=O)Nc3ccccc3N)cc2)C1 [Compound 53, (S)-N-(2-aminophenyl)-4-((1-neopentylpyrrolidin-3-yl)oxy)benzamide] | 1 to 2 |

Same assay, conditions: iPSC, 24 h, read-out: FXN mRNA fold induction, compound concentration of 0.625 μM, 24 h incubation

| Structure (SMILES) | fold induction at 0.625 µM |
| --- | --- |
| CN(c1ccc(C(=O)Nc2ccccc2N)cc1)C1CCN(CC2CC2)CC1 [Compound 5, N-(2-aminophenyl)-4-((1-(cyclopropylmethyl)piperidin-4-yl)(methyl)amino)benzamide] | 2 to 3 |
| CN(c1ccc(C(=O)Nc2ccccc2N)cc1)C1CCN(CC(C)(C)O)CC1 [Compound 6, N-(2-aminophenyl)-4-((1-(2-hydroxy-2-methylpropyl)piperidin-4-yl)(methyl)amino) benzamide] | 2 to 3 |
| CCN(c1ccc(C(=O)Nc2ccccc2N)cc1)C1CCN(CC2CC2)CC1 [Compound 26, N-(2-aminophenyl)-4-((1-(cyclopropylmethyl)piperidin-4-yl)(ethyl)amino)benzamide Trihydrochloride] | 2 to 3 |
| CCN(c1ccc(C(=O)Nc2ccccc2N)cc1)C1CCN(CC(C)(C)O)CC1 [Compound 27, N-(2-aminophenyl)-4-(ethyl(1-(2-hydroxy-2-methylpropyl)piperidin-4-yl)amino)benzamide Trihydrochloride] | 2 to 3 |
| Nc1ccccc1NC(=O)c1ccc(N(CC2CC2)C2CCN(CC3CC3)CC2)cc1 [Compound 28, N-(2-aminophenyl)-4-((cyclopropylmethyl)(1-(cyclopropylmethyl)piperidin-4-yl)amino)benzamide Trihydrochloride] | 2 to 3 |
| CC(C)(O)CN1CCC(N(CC2CC2)c2ccc(C(=O)Nc3ccccc3N)cc2)CC1 [Compound 29, N-(2-aminophenyl)-4-((cyclopropylmethyl)(1-(2-hydroxy-2-methylpropyl)piperidin-4-yl)amino)benzamide Trihydrochloride] | 1 to 2 |
